The record followed here is patent EP0036572A1, “Substituted alkylthioacylamino acids, processes for their preparation and pharmaceutical compositions” (C.H. BOEHRINGER SOHN, priority 1980, dated 1981).

Each structure is given as a SMILES string.

The subject of experiment [1] is genetischen Hochdruckratte. The note with it: genetische Hochdruckratte; 30 mg/kg p.o.
Experiment [2] deals with durch Bradykinin erzeugte Blutdrucksenkung. To be noted: Ratten; 3,0 µ g/kg Bradykinin i.v.; test substance 1,38juMol/kg i.v.

In the case of `C[C@H](CSC(C[N+](=O)[O-])c1ccccc1)C(=O)N1CCC[C@H]1C(=O)O` (stereo partly drawn) [Beispiel 1, 1-[3-(1-Phenyl-2-nitro-äthylthio)-2-D-methylpropanoyl]-L-prolin], the Blutdrucksenkung in experiment [1] stood at 19%. The “durch Bradykinin verursachte Blutdrucksenkung verstärkt um” value in experiment [2] came to 142%.
